{"source": "patent US20180024136A1", "about": "“Development of ABCG2-Sensitive Fluorescent Probe For Isolation of ABCG2low Neural Stem/Progenitor Cells” (National University of Singapore, priority 2015, published 2018)", "key": {"[1]": {"test_system": "E14.5 mouse embryonic brain cells", "test": "Neurosphere formation of FACS-sorted E14.5 embryonic brain cells", "assay_type": "cell-based", "conditions": "6 days culture, >50 μm diameter, 10,000 cells/well", "description": "For the counting of the number of neurosphere, we selected 6 days-cultured neurospheres having larger than 50 μm of diameter. The whole neurospheres in a well were counted to reduce random counting error using EVOS microscope (Advanced Microscopy Group).\nE14.5 embryos were obtained from C57BL/6 pregnant mice. Cerebral cortices were removed and triturated into single-cell suspension by digestion of dissected tissues with StemPro® Accutase® (Invitrogen) and filtered through 40 μm nylon mesh. The brain cells were collected by centrifugation with 400×g for 3 min and resuspended in neurosphere growth medium [DMEM/F12 supplemented with 2% B27 (without vitamin A), bFGF (10 ng/ml), EGF (20 ng/ml), 1× anti-anti]. The cells were stained for 1 hour with 1 μM of CDg13 in neurosphere growth medium. After collecting cells by centrifuge as described above, the cells were resuspended to BSA-free DMEM (phenol red free) and added propidium iodide (PI) at a concentration of 1 μg/ml to distinguish dead cells. FACS sorting was performed using the MoFlo XDP cell sorter (Beckman Coulter). Cells were sorted by pre-gating with FSC/SSC properties to exclude small debris having FSC^low/SSC^low. To isolate CDg13 stained cell population, we used a 488 nm laser excitation and a 529/28 BP filter to collect emitted light. Dead cells stained by PI were detected with a 488 nm excitation and a 620/29 BP emission. […]"}, "NS-5 cells": {"test_system": "NS-5 cells", "test": "Subcellular co-localization with organelle trackers by confocal microscopy", "assay_type": "cell-based, mouse", "protocol": "Hoechst 33342 (2 μM) and CDg13 (1 μM) were added to the cell culture medium. After incubation for 1 hour, culture media were changed with BSA-free medium to maintain CDg13 staining. The organelle specific chemical probes, ER-Tracker™ Red, BODIPY® TR Ceramide, LysoTracker® Red DND-99 and MitoTracker® Deep Red FM, were used to stain endoplasmic reticulum, Golgi apparatus, lysosome and mitochondria, respectively according to manufacturer's instructions (Molecular Probe). The subcellular staining was observed under confocal microscope and their co-localizations were analyzed by Pearson's Collection and Mander's overlap using NIS-Elements software of Eclipse Ti microscope (Nikon).\nNS-5 cells stained with CDg13, Hoechst33342 and/or organelle markers were observed using A1R+si confocal microscope (Nikon) within 1 hour after staining. The live NS-5 cells were loaded into a pre-heated plate with supplemented 5% CO2. Fast scanning less than 250 ms with 4 times scan were used to prevent phototoxicity onto the cells."}, "ABCG2": {"biological_target": "T1, ABCG2 (Homo sapiens, UniProt Q9UNQ0)", "T1 sequence (Q9UNQ0 1-655)": "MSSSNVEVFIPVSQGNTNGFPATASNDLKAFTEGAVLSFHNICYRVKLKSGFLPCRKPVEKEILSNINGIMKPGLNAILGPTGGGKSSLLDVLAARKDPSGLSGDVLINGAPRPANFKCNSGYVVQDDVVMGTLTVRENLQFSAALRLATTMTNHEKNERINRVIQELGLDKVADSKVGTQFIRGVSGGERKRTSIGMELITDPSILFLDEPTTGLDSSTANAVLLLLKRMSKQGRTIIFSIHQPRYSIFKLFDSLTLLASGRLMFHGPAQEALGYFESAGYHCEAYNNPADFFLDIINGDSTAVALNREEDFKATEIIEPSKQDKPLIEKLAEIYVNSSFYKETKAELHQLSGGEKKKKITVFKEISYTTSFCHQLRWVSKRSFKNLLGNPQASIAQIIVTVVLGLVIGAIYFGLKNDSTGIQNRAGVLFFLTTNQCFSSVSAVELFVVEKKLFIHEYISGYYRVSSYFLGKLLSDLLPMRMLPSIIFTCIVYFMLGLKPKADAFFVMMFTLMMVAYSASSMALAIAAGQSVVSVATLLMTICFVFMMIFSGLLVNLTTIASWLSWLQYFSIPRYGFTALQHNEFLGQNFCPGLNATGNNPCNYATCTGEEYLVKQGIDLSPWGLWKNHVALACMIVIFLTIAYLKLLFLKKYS", "test": "Probe response to Ko143 in RPMI-8226 cells", "assay_type": "cell-based", "parameters": "pre-treatment of RPMI-8226 cells with or without Ko143; endogenous in cells; host or cells: RPMI-8226", "conditions": "RPMI-8226, Ko143 pre-treatment, 1 μM probe", "protocol": "FIGS. 11A-11B show CDg13 has high sensitivity to ABCG2: (A) and (B) pre-treatment of RPMI-8226 cells with or without Ko143 were conducted for 30 minutes prior to staining with 1 μM of CDg13, pheophorbide A (PhA) or CDr3, fold change of fluorescence intensity from 3-6 independent experiments (A) (values are means±SEM, *, p<0.05; **, p<0.01), and representative fluorescence histogram of CDg13 and PhA (B) (unstained, 0, 100, 1,000 and 5,000 nM of Ko143 treated group is presented)."}}, "data": [{"smiles": "CCCCCCCCCN(CCCCCCCCC)C(=O)c1ccc(-c2c3cc(Cl)c(=O)cc-3oc3cc(O)c(Cl)cc23)cc1", "note": "[CDg13]", "values": [{"measurement": "number of neurospheres of CDg13^bright cells compared to CD133^high cells", "setting": "[1]", "result": 1.5, "unit": "fold"}, {"measurement": "number of neurospheres of CDg13^bright cells compared to unsorted brain cells", "setting": "[1]", "result": 5.9, "unit": "fold"}, {"measurement": "co-localization with other organelle markers", "setting": "NS-5 cells; Golgi, lysosome, mitochondria trackers", "result": "below 0.83"}, {"measurement": "co-localization with ER (Pearson's Collection and Mander's overlap)", "setting": "NS-5 cells; live NS-5 cells, ER tracker", "result": 0.97}, {"measurement": "sensitivity of response to ABCG2", "setting": "ABCG2", "result": "higher sensitivity and produced more consistent data than PhA"}]}]}
